Assay results as given in patent publication US10172830B2, “Pyrazolone compounds having human neutrophil elastase inhibitory properties” (CHIESI FARMACEUTICI S.P.A., priority 2016, dated 2019).

Biological target: T1, human neutrophil elastase (HNE) (Homo sapiens, UniProt P08246)
T1 construct: purchased Sigma E8140
T1 sequence (P08246 30-247 limits assumed): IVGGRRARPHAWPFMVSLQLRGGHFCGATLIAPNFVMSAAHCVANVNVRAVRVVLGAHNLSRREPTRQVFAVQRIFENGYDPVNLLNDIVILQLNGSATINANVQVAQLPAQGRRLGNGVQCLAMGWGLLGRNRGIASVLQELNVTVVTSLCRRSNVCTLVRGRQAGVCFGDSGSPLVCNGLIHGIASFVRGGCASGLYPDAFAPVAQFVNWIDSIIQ
Assay: HNE enzyme assay (human neutrophil elastase enzyme activity assay)
Format: biochemical
Conditions: human leukocyte elastase 0.00072 U/mL; substrate MeOSuc-Ala-Ala-Pro-Val-AMC 100 μM; 25° C. for 30 minutes; at least two separate experiments; read-out: HNE inhibition (HNE enzyme inhibition, IC50 values)
Description: Compounds of the present invention were tested for potency in a human neutrophil elastase (HNE) enzyme activity assay.
Assays were performed in 96-well plates in a total assay volume of 100 μL. The final concentration of elastase enzyme (human leukocyte elastase, Sigma E8140) was 0.00072 U/mL. The peptide substrate (MeOSuc-Ala-Ala-Pro-Val-AMC, Calbiochem #324740) was used at a final concentration of 100 μM. The final concentration of DMSO was 1% in the assay buffer (0.05M Tris.HCl, 0.1M NaCl, 0.1M CaCl2, 0.0005% brij-35, pH 7.5). The enzymatic reaction was started by addition of the enzyme and incubated at 25° C. for 30 minutes. After incubation, the reaction was stopped by addition of soybean trypsin inhibitor (Sigma T9003) at a final concentration of 50 μg/well. Fluorescence was measured using a Molecular Devices fluorescence plate reader using 380 nm excitation and 460 nm emission wavelengths.
A dose response to each compound was performed and the effect of compound in each experiment was expressed as a percentage inhibition of the control enzyme fluorescence. Dose response curves were plotted and compound potency (IC50) was determined. Compounds were tested in at least two separate experiments.

IC50	Compound
< 1 nM	C[C@H](NC(=O)c1c(-c2ccnn2-c2ccc(C#N)cc2)n(C)n(-c2cccc(C(F)(F)F)c2)c1=O)C(=O)N1CCCN(C)CC1 [Example 17, 2′-(4-Cyano-phenyl)-2-methyl-5-oxo-1-(3-trifluoromethyl-phenyl)-2,5-dihydro-1H,2′H-[3,3′]bipyrazolyl-4-carboxylic acid [(S)-1-methyl-2-(4-methyl-[1,4]diazepan-1-yl)-2-oxo-ethyl]-amide]
< 1 nM	Cn1c(-c2ccnn2-c2ccc(C#N)cc2)c(C(=O)NC2CC[N+](C)(C)CC2)c(=O)n1-c1cccc(C(F)(F)F)c1 [Example 18, 4-{[2′-(4-Cyano-phenyl)-2-methyl-5-oxo-1-(3-trifluoromethyl-phenyl)-2,5-dihydro-1H,2′H-[3,3′]bipyrazolyl-4-carbonyl]-amino}-1,1-dimethyl-piperidinium benzene sulphonate]
< 1 nM	C[C@H](NC(=O)c1c(-c2ccnn2-c2ccc(C#N)cc2)n(C)n(-c2cccc(C(F)(F)F)c2)c1=O)c1cc[n+](C)cc1 [Example 19, 4-((S)-1-{[2′-(4-Cyano-phenyl)-2-methyl-5-oxo-1-(3-trifluoromethyl-phenyl)-2,5-dihydro-1H,2′H-[3,3′]bipyrazolyl-4-carbonyl]-amino}-ethyl)-1-methyl-pyridinium benzene sulphonate]
1 to 10 nM	Cn1c(-c2ccnn2-c2ccc(C#N)cc2)c(C(=O)NCCC[N+](C)(C)C)c(=O)n1-c1cccc(C(F)(F)F)c1 [Example 20, (3-{[2′-(4-Cyano-phenyl)-2-methyl-5-oxo-1-(3-trifluoromethyl-phenyl)-2,5-dihydro-1H,2′H-[3,3′]bipyrazolyl-4-carbonyl]-amino}-propyl)-trimethyl-ammonium benzene sulphonate]
1 to 10 nM	Cn1c(-c2ccnn2-c2ccc(C#N)cc2)c(C(=O)NCC[N+](C)(C)C)c(=O)n1-c1cccc(C(F)(F)F)c1 [Example 21, (2-{[2′-(4-Cyano-phenyl)-2-methyl-5-oxo-1-(3-trifluoromethyl-phenyl)-2,5-dihydro-1H,2′H-[3,3′]bipyrazolyl-4-carbonyl]-amino}-ethyl)-trimethyl-ammonium benzene sulphonate]
< 1 nM	Cn1c(-c2ccnn2-c2ccc(C#N)cc2)c(C(=O)NC2CC[N+]3(CCCC3)CC2)c(=O)n1-c1cccc(C(F)(F)F)c1 [Example 22, 8-{[2′-(4-Cyano-phenyl)-2-methyl-5-oxo-1-(3-trifluoromethyl-phenyl)-2,5-dihydro-1H,2′H-[3,3′]bipyrazolyl-4-carbonyl]-amino}-5-azonia-spiro[4.5]decane bromide]
< 1 nM	Cn1c(-c2ccnn2-c2ccc(C#N)cc2)c(C(=O)N[C@@H]2C[C@@H]3C[N+](C)(C)C[C@@H]3C2)c(=O)n1-c1cccc(C(F)(F)F)c1 [Example 23, (3aS,5R,6aR)-5-{[2′-(4-Cyano-phenyl)-2-methyl-5-oxo-1-(3-trifluoromethyl-phenyl)-2,5-dihydro-1H,2′H-[3,3′]bipyrazolyl-4-carbonyl]-amino}-2,2-dimethyl-octahydro-cyclopenta[c]pyrrolium benzene sulphonate]
< 1 nM	Cn1c(-c2ccnn2-c2ccc(C#N)cc2)c(C(=O)N[C@H]2CC[C@H](C[N+](C)(C)C)CC2)c(=O)n1-c1cccc(C(F)(F)F)c1 [Example 24, (Trans-4-{[2′-(4-cyano-phenyl)-2-methyl-5-oxo-1-(3-trifluoromethyl-phenyl)-2,5-dihydro-1H,2′H-[3,3′]bipyrazolyl-4-carbonyl]-amino}-cyclohexylmethyl)-trimethyl-ammonium benzene sulphonate]
< 1 nM	Cn1c(-c2ccnn2-c2ccc(C#N)cc2)c(C(=O)N[C@H]2CC[C@H](C[N+](C)(C)Cc3ccccc3)CC2)c(=O)n1-c1cccc(C(F)(F)F)c1 [Example 25, Benzyl-(trans-4-{[2′-(4-cyano-phenyl)-2-methyl-5-oxo-1-(3-trifluoromethyl-phenyl)-2,5-dihydro-1H,2′H-[3,3′]bipyrazolyl-4-carbonyl]-amino}-cyclohexylmethyl)-dimethyl-ammonium bromide]
< 1 nM	C[C@H](NC(=O)c1c(-c2ccnn2-c2ccc(C#N)cc2)n(C)n(-c2cccc(C(F)(F)F)c2)c1=O)C(=O)N1CC[N+](C)(C)CC1 [Example 26, 4-((S)-2-{[2′-(4-Cyano-phenyl)-2-methyl-5-oxo-1-(3-trifluoromethyl-phenyl)-2,5-dihydro-1H,2′H-[3,3′]bipyrazolyl-4-carbonyl]-amino}-propionyl)-1,1-dimethyl-piperazin-1-ium benzene sulphonate]
< 1 nM	C[C@H](NC(=O)c1c(-c2ccnn2-c2ccc(C#N)cc2)n(C)n(-c2cccc(C(F)(F)F)c2)c1=O)C(=O)N1CC[N+](C)(Cc2ccccc2)CC1 [Example 27, 1-Benzyl-4-((S)-2-{[2′-(4-cyano-phenyl)-2-methyl-5-oxo-1-(3-trifluoromethyl-phenyl)-2,5-dihydro-1H,2′H-[3,3′]bipyrazolyl-4-carbonyl]-amino}-propionyl)-1-methyl-piperazin-1-ium bromide]
< 1 nM	Cn1c(-c2ccnn2-c2ccc(C#N)cc2)c(C(=O)NC2C[C@H]3CC[C@@H](C2)[N+]3(C)C)c(=O)n1-c1cccc(C(F)(F)F)c1 (stereo partly drawn) [Example 28, (1S,3S,5R)-3-{[2′-(4-Cyano-phenyl)-2-methyl-5-oxo-1-(3-trifluoromethyl-phenyl)-2,5-dihydro-1H,2′H-[3,3′]bipyrazolyl-4-carbonyl]-amino}-8,8-dimethyl-8-azonia-bicyclo[3.2.1]octane benzene sulphonate]
1 to 10 nM	Cn1c(-c2ccnn2-c2ccc(C#N)cc2)c(C(=O)NC[C@H]2CC[C@H]([N+](C)(C)C)CC2)c(=O)n1-c1cccc(C(F)(F)F)c1 [Example 29, [Trans-4-({[2′-(4-cyano-phenyl)-2-methyl-5-oxo-1-(3-trifluoromethyl-phenyl)-2,5-dihydro-1H,2′H-[3,3′]bipyrazolyl-4-carbonyl]-amino}-methyl)-cyclohexyl]-trimethyl-ammonium benzene sulphonate]
< 1 nM	C[C@H](NC(=O)c1c(-c2ccnn2-c2ccc(C#N)cc2)n(C)n(-c2cccc(C(F)(F)F)c2)c1=O)c1ncc(C[N+](C)(C)C)o1 [Example 30, [2-((S)-1-{[2′-(4-Cyano-phenyl)-2-methyl-5-oxo-1-(3-trifluoromethyl-phenyl)-2,5-dihydro-1H,2′H-[3,3′]bipyrazolyl-4-carbonyl]-amino}-ethyl)-oxazol-5-ylmethyl]-trimethyl-ammonium benzene sulphonate]
< 1 nM	C[C@H](NC(=O)c1c(-c2ccnn2-c2ccc(C#N)cc2)n(C)n(-c2cccc(C(F)(F)F)c2)c1=O)c1ncc(C[N+](C)(C)Cc2ccccc2)o1 [Example 31, Benzyl-[2-((S)-1-{[2′-(4-cyano-phenyl)-2-methyl-5-oxo-1-(3-trifluoromethyl-phenyl)-2,5-dihydro-1H,2′H-[3,3′]bipyrazolyl-4-carbonyl]-amino}-ethyl)-oxazol-5-ylmethyl]-dimethyl-ammonium bromide]
< 1 nM	Cc1cc(C[N+](C)(C)Cc2cnc([C@H](C)NC(=O)c3c(-c4ccnn4-c4ccc(C#N)cc4)n(C)n(-c4cccc(C(F)(F)F)c4)c3=O)o2)no1 [Example 32, [2-((S)-1-{[2′-(4-Cyano-phenyl)-2-methyl-5-oxo-1-(3-trifluoromethyl-phenyl)-2,5-dihydro-1H,2′H-[3,3′]bipyrazolyl-4-carbonyl]-amino}-ethyl)-oxazol-5-ylmethyl]-dimethyl-(5-methyl-isoxazol-3-ylmethyl)-ammonium chloride]
< 1 nM	Cn1c(-c2ccnn2-c2ccc(C#N)cc2)c(C(=O)NC2CCN(C(=O)C[N+](C)(C)C)CC2)c(=O)n1-c1cccc(C(F)(F)F)c1 [Example 33, [2-(4-{[2′-(4-Cyano-phenyl)-2-methyl-5-oxo-1-(3-trifluoromethyl-phenyl)-2,5-dihydro-1H,2′H-[3,3′]bipyrazolyl-4-carbonyl]-amino}-piperidin-1-yl)-2-oxo-ethyl]-trimethyl-ammonium benzene sulphonate]
1 to 10 nM	Cn1c(-c2ccnn2-c2ccc(C#N)cc2)c(C(=O)OC2CCN(C(=O)C[N+](C)(C)C)CC2)c(=O)n1-c1cccc(C(F)(F)F)c1 [Example 34, (2-{4-[2′-(4-Cyano-phenyl)-2-methyl-5-oxo-1-(3-trifluoromethyl-phenyl)-2,5-dihydro-1H,2′H-[3,3′]bipyrazolyl-4-carbonyloxy]-piperidin-1-yl}-2-oxo-ethyl)-trimethyl-ammonium benzene sulphonate]
< 1 nM	C[C@H](NC(=O)c1c(-c2ccnn2-c2ccc(C#N)cc2)n(C)n(-c2cccc(C(F)(F)F)c2)c1=O)C(=O)N1CCC([N+](C)(C)Cc2ccccc2)CC1 [Example 35, Benzyl-[1-((S)-2-{[2′-(4-cyano-phenyl)-2-methyl-5-oxo-1-(3-trifluoromethyl-phenyl)-2,5-dihydro-1H,2′H-[3,3′]bipyrazolyl-4-carbonyl]-amino}-propionyl)-piperidin-4-yl]-dimethyl-ammonium bromide]
